Measurements from ChEMBL document CHEMBL3856228, “Design and Synthesis of Pyridone-Containing 3,4-Dihydroisoquinoline-1(2H)-ones as a Novel Class of Enhancer of Zeste Homolog 2 (EZH2) Inhibitors” (J Med Chem, 2016).
Converted amounts (≈) assume the structure as drawn. The source made the active and inactive calls. No cut-off for these calls is given here.

Tested on: KARPAS-422
Test: Antitumor activity against human KARPAS422 cells xenografted in Scid beige mouse assessed as tumor growth inhibition at 200 to 300 mg/kg, bid for 20 days measured for 3 weeks post last dose
Assay type: functional, organism-based
Settings: not given

| Structure (SMILES) | TGI |
| --- | --- |
| Cc1cc(C)c(CN2CCc3c(Cl)cc(-c4c(C)noc4C)c(Cl)c3C2=O)c(=O)[nH]1 | Active |

Tested on: KARPAS-422
Test: Antitumor activity against human KARPAS422 cells xenografted in Scid beige mouse assessed as tumor stasis at 200 to 300 mg/kg, bid for 20 days measured on day 20
Assay type: functional, organism-based
Settings: not given

| Structure (SMILES) | Activity |
| --- | --- |
| Cc1cc(C)c(CN2CCc3c(Cl)cc(-c4c(C)noc4C)c(Cl)c3C2=O)c(=O)[nH]1 | Active |

Tested on: KARPAS-422
Test: Antitumor activity against human KARPAS422 cells xenografted in Scid beige mouse assessed as tumor regression at 200 to 300 mg/kg, bid for 20 days measured on day 20
Assay type: functional, organism-based
Settings: not given

| Structure (SMILES) | Activity |
| --- | --- |
| Cc1cc(C)c(CN2CCc3c(Cl)cc(-c4c(C)noc4C)c(Cl)c3C2=O)c(=O)[nH]1 | Active |

Tested on: not listed separately
Test: Time duration during which free plasma concentration stays at or below in vitro cell IC50 in mouse at 30 to 100 mg/kg
Assay type: ADME, organism-based
Settings: in vivo

| Time [h] | Structure (SMILES) |
| --- | --- |
| 6 | Cc1cc(C)c(CN2CCc3c(Cl)cc(-c4c(C)noc4C)c(Cl)c3C2=O)c(=O)[nH]1 |

Molecular target: Histone-lysine N-methyltransferase EZH2 (Homo sapiens, UniProt O75530+Q09028+Q15022+Q15910)
Test: Inhibition of wild-type EZH2 (unknown origin) expressed in baculovirus infected SF9 cells co-expressing SUZ12/EED/RbAp48 complex using HeLa cells derived oligonucleosomes as substrate after 60 mins in presence of [3H] SAM by scintillation counting
Settings: not given

Histone-lysine N-methyltransferase EZH2 (Homo sapiens, UniProt O75530+Q09028+Q15022+Q15910), sequence (Q15910 whole entry, one chain of several): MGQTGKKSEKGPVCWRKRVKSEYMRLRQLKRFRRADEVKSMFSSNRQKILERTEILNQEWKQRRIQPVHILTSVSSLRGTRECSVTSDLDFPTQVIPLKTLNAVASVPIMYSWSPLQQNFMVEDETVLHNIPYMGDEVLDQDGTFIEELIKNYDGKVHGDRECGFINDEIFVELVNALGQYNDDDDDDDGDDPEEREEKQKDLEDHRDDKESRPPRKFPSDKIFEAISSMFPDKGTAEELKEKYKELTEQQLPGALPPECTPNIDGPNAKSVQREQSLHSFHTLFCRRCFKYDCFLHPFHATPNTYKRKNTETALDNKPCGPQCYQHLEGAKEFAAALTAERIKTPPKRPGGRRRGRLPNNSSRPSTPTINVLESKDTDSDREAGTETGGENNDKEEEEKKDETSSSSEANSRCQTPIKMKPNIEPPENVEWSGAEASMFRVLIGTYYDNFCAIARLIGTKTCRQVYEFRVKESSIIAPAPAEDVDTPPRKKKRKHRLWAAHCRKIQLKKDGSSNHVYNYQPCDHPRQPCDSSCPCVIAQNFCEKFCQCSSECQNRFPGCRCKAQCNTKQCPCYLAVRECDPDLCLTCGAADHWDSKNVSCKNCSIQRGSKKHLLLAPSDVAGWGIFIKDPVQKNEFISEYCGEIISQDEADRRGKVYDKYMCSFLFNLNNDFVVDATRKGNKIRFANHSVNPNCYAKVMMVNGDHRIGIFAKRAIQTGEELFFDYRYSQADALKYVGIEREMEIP

| Structure (SMILES) | IC50 [nM] | Ki [nM] |
| --- | --- | --- |
| Cc1cc(C)c(CN2CCc3c(Cl)cc(O[C@@H]4CCOC4)c(Cl)c3C2=O)c(=O)[nH]1 | 5.6 | – |
| Cc1cc(C)c(CN2CCc3c(Cl)cc(-c4cn[nH]c4)c(Cl)c3C2=O)c(=O)[nH]1 | 51 | – |
| Cc1cc(C)c(CN2CCc3c(Cl)cc(-c4c(C)noc4C)c(Cl)c3C2=O)c(=O)[nH]1 | – | 0.7 |

Now from value to compound:

| IC50 [nM] | Ki [nM] | Structure (SMILES) |
| --- | --- | --- |
| 2000 | – | CCOc1cccc(C(=O)NCc2c(C)cc(C)[nH]c2=O)c1C |
| 7200 | – | COc1cccc(C(=O)NCc2c(C)cc(C)[nH]c2=O)c1Cl |
| 5700 | – | COc1cccc(C(=O)NCc2c(C)cc(C)[nH]c2=O)c1C |

Tested on: not listed separately
Test: Lipophilicity, log D of the compound at pH 7.4
Settings: buffer

| Structure (SMILES) | logD |
| --- | --- |
| Cc1cc(C)c(CN2CCc3c(Cl)cc(O[C@@H]4CCOC4)c(Cl)c3C2=O)c(=O)[nH]1 | 2.5 |
| Cc1cc(C)c(CN2CCc3c(Cl)cc(-c4cn[nH]c4)c(Cl)c3C2=O)c(=O)[nH]1 | 3 |
| Cc1cc(C)c(CN2CCc3c(Cl)cc(-c4c(C)noc4C)c(Cl)c3C2=O)c(=O)[nH]1 | 3.1 |

Further lines, results first:

| logD | Structure (SMILES) |
| --- | --- |
| 2.1 | CCOc1cccc(C(=O)NCc2c(C)cc(C)[nH]c2=O)c1C |
| 1.2 | COc1cccc(C(=O)NCc2c(C)cc(C)[nH]c2=O)c1Cl |
| 1.5 | COc1cccc(C(=O)NCc2c(C)cc(C)[nH]c2=O)c1C |

Tested on: not listed separately
Test: Intrinsic clearance in human liver microsomes at 1 uM after 45 mins in presence of NADPH by LC-MS/MS analysis
Assay type: ADME
Settings: read-out: CLH

| microsomal CLint at 1 µM [µL/min/mg] | Structure (SMILES) |
| --- | --- |
| 8 | COc1cccc(C(=O)NCc2c(C)cc(C)[nH]c2=O)c1Cl |
| 107 | Cc1cc(C)c(CN2CCc3c(Cl)cc(-c4c(C)noc4C)c(Cl)c3C2=O)c(=O)[nH]1 |

| Structure (SMILES) | microsomal CLint at 1 µM [µL/min/mg] |
| --- | --- |
| Cc1cc(C)c(CN2CCc3c(Cl)cc(O[C@@H]4CCOC4)c(Cl)c3C2=O)c(=O)[nH]1 | 21 |

Molecular target: Histone-lysine N-methyltransferase EZH2 (Homo sapiens, UniProt O75530+Q09028+Q15022+Q15910, Y641N)
Test: Inhibition of EZH2 Y641N mutant (unknown origin) expressed in baculovirus infected SF9 cells co-expressing SUZ12/EED/RbAp48 complex using HeLa cells derived oligonucleosomes as substrate after 60 mins in presence of [3H] SAM by scintillation counting
Settings: not given

Histone-lysine N-methyltransferase EZH2 (Homo sapiens, UniProt O75530+Q09028+Q15022+Q15910, Y641N), sequence (Q15910 whole entry Y641N, one chain of several): as the sequence (Q15910 whole entry, one chain of several) above, with Y641N counted along it

| Structure (SMILES) | IC50 [nM] |
| --- | --- |
| Cc1cc(C)c(CN2CCc3c(Cl)cc(O[C@@H]4CCOC4)c(Cl)c3C2=O)c(=O)[nH]1 | 18 |
| Cc1cc(C)c(CN2CCc3c(Cl)cc(-c4cn[nH]c4)c(Cl)c3C2=O)c(=O)[nH]1 | 270 to 271 |

Molecular target: Histone-lysine N-methyltransferase EZH2 (Homo sapiens, UniProt Q15910)
Test: Inhibition of EZH2 in human KARPAS422 cells assessed as reduction in H3K27Me3 levels after 72 hrs by ELISA
Assay type: cell-based
Settings: not given

Histone-lysine N-methyltransferase EZH2 (Homo sapiens, UniProt Q15910), sequence (Q15910 whole entry): as the sequence (Q15910 whole entry, one chain of several) above

| Structure (SMILES) | IC50 [nM] |
| --- | --- |
| Cc1cc(C)c(CN2CCc3c(Cl)cc(O[C@@H]4CCOC4)c(Cl)c3C2=O)c(=O)[nH]1 | 170 |
| Cc1cc(C)c(CN2CCc3c(Cl)cc(-c4cn[nH]c4)c(Cl)c3C2=O)c(=O)[nH]1 | 1730 |
| Cc1cc(C)c(CN2CCc3c(Cl)cc(-c4c(C)noc4C)c(Cl)c3C2=O)c(=O)[nH]1 | 15 |

Tested on: not listed separately
Test: Cytotoxicity against human KARPAS422 cells assessed as inhibition of cell proliferation after 72 hrs
Assay type: functional, cell-based
Settings: KARPAS-422, 72 h

| Structure (SMILES) | IC50 [nM] |
| --- | --- |
| Cc1cc(C)c(CN2CCc3c(Cl)cc(O[C@@H]4CCOC4)c(Cl)c3C2=O)c(=O)[nH]1 | 155 |
| Cc1cc(C)c(CN2CCc3c(Cl)cc(-c4cn[nH]c4)c(Cl)c3C2=O)c(=O)[nH]1 | 1580 |
| Cc1cc(C)c(CN2CCc3c(Cl)cc(-c4c(C)noc4C)c(Cl)c3C2=O)c(=O)[nH]1 | 25 |

Tested on: not listed separately
Test: Intrinsic clearance in mouse liver microsomes at 1 uM after 45 mins in presence of NADPH by LC-MS/MS analysis
Assay type: ADME
Settings: read-out: CLH

| Structure (SMILES) | microsomal CLint at 1 µM [µL/min/mg] |
| --- | --- |
| Cc1cc(C)c(CN2CCc3c(Cl)cc(O[C@@H]4CCOC4)c(Cl)c3C2=O)c(=O)[nH]1 | 163 |
| Cc1cc(C)c(CN2CCc3c(Cl)cc(-c4c(C)noc4C)c(Cl)c3C2=O)c(=O)[nH]1 | 531 |

Tested on: not listed separately
Test: Permeability in RRCK cells
Assay type: ADME, cell-based, Canis lupus familiaris, MDCKII-LE
Settings: dog, MDCK; read-out: permeability

| Structure (SMILES) | Papp [×10⁻⁶ cm/s] |
| --- | --- |
| Cc1cc(C)c(CN2CCc3c(Cl)cc(O[C@@H]4CCOC4)c(Cl)c3C2=O)c(=O)[nH]1 | 14.7 |
| Cc1cc(C)c(CN2CCc3c(Cl)cc(-c4c(C)noc4C)c(Cl)c3C2=O)c(=O)[nH]1 | 15.7 |

Tested on: MDR1
Test: Permeability across apical to basolateral side in MDCK cells expressing MDR1
Assay type: ADME, cell-based, Canis lupus familiaris
Settings: dog, read-out: permeability

| Structure (SMILES) | Papp A→B [×10⁻⁶ cm/s] |
| --- | --- |
| Cc1cc(C)c(CN2CCc3c(Cl)cc(O[C@@H]4CCOC4)c(Cl)c3C2=O)c(=O)[nH]1 | 4.5 |
| Cc1cc(C)c(CN2CCc3c(Cl)cc(-c4c(C)noc4C)c(Cl)c3C2=O)c(=O)[nH]1 | 5.2 |

Tested on: not listed separately
Test: Kinetic solubility of the compound
Assay type: physicochemical
Settings: read-out: Kinetic_solubility

| Structure (SMILES) | solubility kinetic [µM] |
| --- | --- |
| Cc1cc(C)c(CN2CCc3c(Cl)cc(O[C@@H]4CCOC4)c(Cl)c3C2=O)c(=O)[nH]1 | 26 (≈ 11.4 µg/mL) |
| Cc1cc(C)c(CN2CCc3c(Cl)cc(-c4c(C)noc4C)c(Cl)c3C2=O)c(=O)[nH]1 | 93.5 (≈ 41.7 µg/mL) |

Tested on: not listed separately
Test: Time duration during which free plasma concentration stays above in vitro cell IC90 in mouse at 300 mg/kg
Assay type: ADME, organism-based
Settings: in vivo

| Time | Structure (SMILES) |
| --- | --- |
| <= 6 hr | Cc1cc(C)c(CN2CCc3c(Cl)cc(-c4c(C)noc4C)c(Cl)c3C2=O)c(=O)[nH]1 |

Tested on: not listed separately
Test: Protein binding in mouse plasma at 30 to 300 mg/kg
Assay type: ADME, organism-based
Settings: read-out: PPB (converted)

| fraction unbound | Structure (SMILES) |
| --- | --- |
| 0.85 | Cc1cc(C)c(CN2CCc3c(Cl)cc(-c4c(C)noc4C)c(Cl)c3C2=O)c(=O)[nH]1 |

Tested on: Mus musculus
Test: Toxicity in Scid beige mouse xenografted with human KARPAS422 cells assessed as body weight loss at 200 to 300 mg/kg, bid for 20 days measured during compound dosing
Assay type: organism-based
Settings: in vivo, 480 h

| Structure (SMILES) | Activity [%] |
| --- | --- |
| Cc1cc(C)c(CN2CCc3c(Cl)cc(-c4c(C)noc4C)c(Cl)c3C2=O)c(=O)[nH]1 | < 10 |

Tested on: Mus musculus
Test: In vivo inhibition of EZH2 in human KARPAS422 cells xenografted in Scid beige mouse assessed as reduction in H3K27Me3 levels at 200 mg/kg, bid for 20 days measured 1 to 4 hrs post last dose on day 20 by ELISA
Assay type: functional
Settings: KARPAS-422

| Structure (SMILES) | inhibition in vivo at 200 mg/kg [%] |
| --- | --- |
| Cc1cc(C)c(CN2CCc3c(Cl)cc(-c4c(C)noc4C)c(Cl)c3C2=O)c(=O)[nH]1 | 55.5 |

Tested on: Mus musculus
Test: In vivo inhibition of EZH2 in Scid beige mouse xenografted with human KARPAS422 cells assessed as reduction in H3K27Me3 levels at 300 mg/kg, bid for 20 days measured 1 to 4 hrs post last dose on day 20 by ELISA
Assay type: functional
Settings: KARPAS-422

| Structure (SMILES) | inhibition in vivo at 300 mg/kg [%] |
| --- | --- |
| Cc1cc(C)c(CN2CCc3c(Cl)cc(-c4c(C)noc4C)c(Cl)c3C2=O)c(=O)[nH]1 | 66.4 |

Tested on: Mus musculus
Test: In vivo inhibition of EZH2 in Scid beige mouse xenografted with human KARPAS422 cells assessed as upregulation of PRDM1 expression at 200 mg/kg, bid for 20 days measured 1 to 4 hrs post last dose on day 20 relative to control
Assay type: functional
Settings: not given

| Structure (SMILES) | fold change (FC) |
| --- | --- |
| Cc1cc(C)c(CN2CCc3c(Cl)cc(-c4c(C)noc4C)c(Cl)c3C2=O)c(=O)[nH]1 | 31.6 |

Tested on: Mus musculus
Test: In vivo inhibition of EZH2 in Scid beige mouse xenografted with human KARPAS422 cells assessed as upregulation of PRDM1 expression at 300 mg/kg, bid for 20 days measured 1 to 4 hrs post last dose on day 20 relative to control
Assay type: functional
Settings: not given

| Structure (SMILES) | fold change (FC) |
| --- | --- |
| Cc1cc(C)c(CN2CCc3c(Cl)cc(-c4c(C)noc4C)c(Cl)c3C2=O)c(=O)[nH]1 | 57.9 |

Tested on: Mus musculus
Test: In vivo inhibition of EZH2 in Scid beige mouse xenografted with human KARPAS422 cells assessed as upregulation of TNFRSF21 expression at 200 mg/kg, bid for 20 days measured 1 to 4 hrs post last dose on day 20 relative to control
Assay type: functional
Settings: not given

| Structure (SMILES) | fold change (FC) |
| --- | --- |
| Cc1cc(C)c(CN2CCc3c(Cl)cc(-c4c(C)noc4C)c(Cl)c3C2=O)c(=O)[nH]1 | 99.2 |

Tested on: Mus musculus
Test: In vivo inhibition of EZH2 in Scid beige mouse xenografted with human KARPAS422 cells assessed as upregulation of TNFRSF21 expression at 300 mg/kg, bid for 20 days measured 1 to 4 hrs post last dose on day 20 relative to control
Assay type: functional
Settings: not given

| Structure (SMILES) | fold change (FC) |
| --- | --- |
| Cc1cc(C)c(CN2CCc3c(Cl)cc(-c4c(C)noc4C)c(Cl)c3C2=O)c(=O)[nH]1 | 208.9 |

Tested on: MDR1
Test: in vitro
Settings: dog, MDCK-MDR1
Description: Efflux ratio of permeability from basolateral to apical side over apical to basolateral side in MDCK cells expressing MDR1

| Structure (SMILES) | efflux ratio |
| --- | --- |
| Cc1cc(C)c(CN2CCc3c(Cl)cc(O[C@@H]4CCOC4)c(Cl)c3C2=O)c(=O)[nH]1 | 4.7 |
| Cc1cc(C)c(CN2CCc3c(Cl)cc(-c4c(C)noc4C)c(Cl)c3C2=O)c(=O)[nH]1 | 4.6 |
